According to US12115250B2, “Use of nanoparticles for treating respiratory infections associated with cystic fibrosis” (EVOQ NANO, INC., priority 2019, dated 2024):

Assays:
[1] = tested on: E. coli ATCC #51813; assay: Antibacterial efficacy test, Relative Light Unit (RLU) counts (ATP); assay type: cell-based
Description: The NIST nanoparticles are formed by a chemical reduction process that utilizes citrate as reducing and capping agent.
Relative Light Unit (RLU) counts were recorded at 12 hours and 24 hours post treatment. RLU measurements were carried out using a Hygiena SystemSURE Plus V.2 SN067503 RLU meter with Hygenia AquaSnap TOTAL ATP Water Test Cat #U143 Lot #153019. Culturing media was Hardy Diagnostics Buffered Peptone Water Lot #118272. Samples were prepared with the nanoparticle treatments and then diluted with the media to provide the tested concentrations. The test organism (Microbiologics, E. coli, KwikStik, ATCC #51813, Ref #0791 K, Lot #791-1-6) was incubated in fresh Buffered Peptone Water growth media for 24 hours prior to exposure to the nanoparticle treatments.

[2] = Efficacy test comparing Attostat Ag to tobramycin (colony reduction); assay type: cell-based; details: 4 μg/mL Attostat Ag vs 20 μg/mL tobramycin
Description: Efficacy tests similar to those of Examples 5 and 6 were performed to compare the efficacy of Attostat Ag to tobramycin. […]

SMILES	RLU Counts at 12 Hours Post Exposure ([1]; 0.25 ppm (mg/L)) [RLU]	RLU Counts at 24 Hours Post Exposure ([1]; 0.25 ppm (mg/L)) [RLU]	RLU Counts at 12 Hours Post Exposure ([1]; 0.5 ppm (mg/L)) [RLU]	RLU Counts at 24 Hours Post Exposure ([1]; 0.5 ppm (mg/L)) [RLU]	RLU Counts at 12 Hours Post Exposure ([1]; 1.0 ppm (mg/L)) [RLU]	RLU Counts at 24 Hours Post Exposure ([1]; 1.0 ppm (mg/L)) [RLU]	colony reduction, comparison [2]
O=[N+]([O-])[O-].[Ag+] [AgNO3 Silver Nitrate, silver nitrate]	80	25	75	46	84	30	–
NC[C@H]1O[C@H](O[C@H]2[C@H](O)[C@@H](O[C@H]3O[C@H](CO)[C@@H](O)[C@H](N)[C@H]3O)[C@H](N)C[C@@H]2N)[C@H](N)C[C@@H]1O [tobramycin]	–	–	–	–	–	–	equal colony reduction
